The values that follow come from US5225420A, “Use of tetrahydrothienopyridine derivatives as angiogenesis inhibitors” (Elf-Sanofi, priority 1991, dated 1993).

Where two headings read alike, the source gives them in different places.

Assay [1] has as its system bovine cerebral cortex capillary endothelial cells. Put plainly: Inhibition of rb-FGF-stimulated capillary endothelial cell proliferation (in vitro test). The class given is cell-based. The conditions noted are these: 1 ng/ml rb-FGF, cell counting 5 days after addition of test product, read-out: IC50 (50% inhibition of cell proliferation). On the procedure:
A nutrient medium (Dulbecco's modified Eagle medium-DMEM), supplemented with fetal calf serum (concentration: 5% V/V) and containing glutamine (4 mM), penicillin (100 U/ml) and streptomycin sulphate (100 μg/ml), is introduced into 1-ml wells and innoculated with bovine cerebral cortex capillary endothelial cells (20×10^3 cells/ml), isolated and cultured as described by D. Gospodarowicz et al. in J. Cell. Physiol. 127, p. 121-136 (1986).
As soon as cell adhesion has taken place, 1 ng/ml of recombinant bovine basic fibroblast growth factor (rb-FGF), marketed by Amersham, a known factor for the stimulation of angiogenesis in vivo, is added, followed by the test solutions.
Cell counting is performed 5 days after the addition of 20 μl of a solution of the test products in dimethyl sulphoxide such that their final concentration in the medium is between 10^-4 and 10^-8 M; the control wells receive 20 μl of solvent.
From the results obtained for several concentrations of each of the test products, the concentration at which the latter produce a 50% inhibition of cell proliferation is calculated in a conventional manner.

Assay [2] has as its system angiogenic response induced by fibrin gels. The conditions noted are these: rat. On the procedure: (§1) Perforated Plexiglas chambers containing a fibrin gel, obtained by polymerisation of rat fibrinogen in the presence of thrombin, are implanted subcutaneously in rats.
The test products, suspended in absolute alcohol and 5% gum arabic (10 ml/kg), are administered orally to the rats at doses of 5 and 25 mg/kg/day for the compounds of Examples 3 and 4, for 5 days before implantation and up to the time of removal of the chambers. After 14 days, a granulation outgrowth is formed, and the chambers are removed in order to observe the height of the granulation outgrowth anchored in the matrix and the quantity of newly-formed vessels which have appeared.
(§2) The inhibition of the angiogenic response was evaluated by:
(§3) (i) the height and diameter of the granulation outgrowths,
(§4) (ii) the number of newly-formed vessels per outgrowth and their localisation,
(§5) (iii) the quality of the granulation tissue.

Assay [3] shares this test system. The conditions noted are these: rat, treatment begun after 14 days. On the procedure:
as §1, §2, §3, §4, §5

Another assay concerns platelet aggregation. As to conditions: described in EP-A-0 281,459; cited from earlier work.
The mark [4] stands for this setting: Bos taurus, Endothelial cell, 120 h.

Regarding `COC(=O)C(c1ccccc1Cl)N1CCc2sccc2C1` (single isomer, unassigned) [Compound 3], the IC50 in assay [1] was determined as 0.8 nM. In assay [2] (5 mg/kg/day oral), the angiogenesis-inhibiting activity entry was “still very active”, the “effectiveness on height of granulation outgrowths” value was “remains effective”, the “inhibition of height of the granulation outgrowths” value is given as 50% and the “lowering of number of newly-formed vessels per outgrowth” value (shortened to “lowering of number … per outgrowth”) came to 50%. In assay [2] (25 mg/kg/day oral), the “angiogenesis-inhibiting activity (comparison with compound No. 4)” value is recorded as “markedly more active than its homologue, the compound No. 4”; the “inhibition of height of the granulation outgrowths” value was determined as 50%; the “lowering of number … per outgrowth” value is on record as 90%. Besides, the “quality of the granulation tissue” value in assay [2] (oral, dose not given) was “more loose-textured and disorganised”. For the same compound, in assay [3] (5 mg/kg/day), the “activity on regression of angiogenesis” value is “still very active”. Further, in assay [3] (25 mg/kg/day), the “activity on regression of angiogenesis (comparison with compound No. 4)” value is reported as “markedly more active than its homologue, the compound No. 4”.

As for `COC(=O)C(c1ccccc1Cl)N1CCc2sccc2C1` (centres unmarked) [Compound 2], the IC50 in assay [1] (setting [4]) stood at 2.3 nM.

For `COC(=O)C(c1ccccc1Cl)N1CCc2sccc2C1` (single isomer, unassigned) [Compound 4, laevorotatory isomer of methyl alpha-(4,5,6,7-tetrahydrothieno[3,2-c]pyrid-5-yl)-alpha-(2-chlorophenyl)acetate], the IC50 in assay [1] was found to be 3.7 nM. Moreover, in assay [2] (5 mg/kg/day oral), the “effectiveness on height of granulation outgrowths” value was “in contrast to the latter compound”. In assay [2] (25 mg/kg/day oral), the “inhibition of height of the granulation outgrowths” value stood at 30% and the “lowering of number … per outgrowth” value stood at 60%. Moreover, in the assay on platelet aggregation, the platelet aggregation inhibition result is “inactive”.

As to `CCCCOC(=O)C(c1ccccc1Cl)N1CCc2sccc2C1` (centres unmarked) [Compound 6], in assay [1] (setting [4]), the IC50 turned out to be 220 nM.

With `CCOC(=O)C(c1ccccc1Cl)N1CCc2sccc2C1` (centres unmarked) [Compound 5], the IC50 in assay [1] (setting [4]) was 70 nM.

`O=C(O)C(c1ccccc1Cl)N1CCc2sccc2C1` (single isomer, unassigned) [Compound 1]: the IC50 in assay [1] (setting [4]) came out at 600 nM.
